Reference: patent US20170334865A1, “DDR2 INHIBITORS AND METHODS OF USING” (WASHINGTON UNIVERSITY, priority 2014, published 2017)
Like-named read-outs stand apart in the source and are kept apart here.

Molecular target: T1, DDR2 extracellular domain (ECD) (Homo sapiens, UniProt Q16832)
T1 sequence (Q16832 22-399 limits assumed): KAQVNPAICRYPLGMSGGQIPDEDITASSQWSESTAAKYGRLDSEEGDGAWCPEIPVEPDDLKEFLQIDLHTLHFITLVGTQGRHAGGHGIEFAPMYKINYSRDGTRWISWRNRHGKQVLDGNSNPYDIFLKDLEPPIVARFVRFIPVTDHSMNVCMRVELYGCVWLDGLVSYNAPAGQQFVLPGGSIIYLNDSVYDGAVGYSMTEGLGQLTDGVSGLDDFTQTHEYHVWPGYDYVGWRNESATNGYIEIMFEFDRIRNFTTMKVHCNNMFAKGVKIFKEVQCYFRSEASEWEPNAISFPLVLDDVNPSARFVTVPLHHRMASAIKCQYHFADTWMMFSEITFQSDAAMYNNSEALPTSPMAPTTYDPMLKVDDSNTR
Assay: in vitro ELISA-type assay, binding of soluble DDR2 ECD to immobilized collagen triple helical peptide
Conditions: read-out: IC50, Inhibition of DDR2-collagen binding activity
Description: The activity of the synthesized compounds was assayed using an in vitro ELISA-type assay to measure the binding of purified, soluble DDR2 extracellular domain (ECD) to an immobilized substrate. The substrate used was a high affinity, specific, triple helical peptide (see Xu et al., PLoS One. 2012; 7(12): e52209), which represents the minimal DDR2 specific binding domain within collagens I-III.
DDR2-collagen binding activity was measured in the presence of 250 nM, 500 nM, or 2 μM of test compound or DMSO control.

Compound | IC50 (values given in μM) | IC50 (values in nM)
O=c1ccc2nc3ccc(OCc4ccccc4)cc3oc-2c1 [WRG-2, 7-benzyloxy-phenoxazin-3-one] | – | 0.461 µM
O=C(Oc1ccc2nc3ccc(=O)cc-3oc2c1)c1ccccc1 [WRG-R-6] | 1.41 µM | –
O=c1ccc2nc3ccc(OCc4ccncc4)cc3oc-2c1 [WRG-R-10] | – | 0.311 µM
COc1cccc(COc2ccc3nc4ccc(=O)cc-4oc3c2)c1 [WRG-R-5] | – | 0.393 µM
O=c1ccc2nc3ccc(OS(=O)(=O)c4ccccc4)cc3oc-2c1 [WRG-R-7] | – | 0.558 µM
O=C(Nc1ccccc1)Oc1ccc2nc3ccc(=O)cc-3oc2c1 [WRG-R-12] | > 100 µM | –
O=c1ccc2nc3ccc(OCc4ccc(OC(F)F)cc4)cc3oc-2c1 [WRG-R-27] | – | 0.11 µM
O=c1ccc2nc3ccc(NS(=O)(=O)c4ccccc4)cc3oc-2c1 [WRG-R-20] | > 100 µM | –

Further lines, results first:

IC50 (values given in μM) | IC50 (values in nM) | Compound
14 µM | – | COCCOc1ccc2nc3ccc(=O)cc-3oc2c1 [WRG-R-4]
4 µM | – | CCOc1ccc2nc3ccc(=O)cc-3oc2c1 [7-ethyloxy-phenoxazin-3-one, reference compound]
3.5 µM | – | CCCCCOc1ccc2nc3ccc(=O)cc-3oc2c1 [WRG-1, 7-pentyloxy-phenoxazin-3-one]
1.2 µM | – | O=c1ccc2nc3ccc(OCc4cccnc4)cc3oc-2c1 [WRG-R-9]
